Assay results taken from patent publication US12410472B2, “Method for evaluating the eye irritation potential of chemicals” (IMMUNOSEARCH, priority 2016, dated 2025).
Where two headings read alike, the source gives them in different places. Marks after values point to notes of the source that are not given here.

Assays:
[1] = tested on: reconstructed human corneal epithelium model (SkinEthic™ HCE)
Text: The reconstructed human corneal epithelium model, (SkinEthic™ HCE) was purchased from Episkin in Lyon. The model consists of immortalized human corneal epithelial cells grown in a defined medium at the air-liquid interface. The tissue structure obtained is a multi-layer epithelium similar to the natural tissue structure of the human cornea, comprising 5-7 layers with a surface area of 0.5 cm^2.
Polyhedral cells and wing cells are also present. The tissue also comprises specific ultrastructures such as intermediate filaments, mature hemidesmosomes and desmosomes. […] The tissues are shipped on a semi-solid layer of agarose culture medium. Upon receipt, the tissues are transferred to maintenance medium (1 ml/well) in 6-well plates and incubated in a climatic chamber at 37° C., 5% CO2. The tissues are used 24 hours later.
Liquid products are tested for solubility in phosphate-buffered saline (PBS) or olive oil. In summary, 100 μl of the test product is mixed with 200 μl of PBS or olive oil.
The sample is mixed on a vortex mixer. Turbidity and possible phase separation are assessed by eye. The products are tested pure or diluted to 30%. Products that are not soluble in PBS or olive oil cannot be tested at 30%.
The procedure for applying liquid products to the tissues was optimized as follows: the chemicals are tested at two concentrations, 100% and 30%. In summary, the tissue surface is moistened by adding 20 μl of PBS at 37° C. and incubation for 10 min at 37° C./5% CO2. The corneal epithelia are then treated topically with 50±2 μL of the test product (corresponding to 100 μL/cm2) and incubated for 10 min at room temperature. The tissues are then washed with sterile PBS (2×25 ml) at 37° C. PBS is applied to the edge of the insert (not directly on the tissue) to create a gentle vortex that removes the chemical. The tissues on their inserts are then “embedded” in 5 ml of maintenance medium at room temperature for 30 min in order to remove as much as possible of the product remaining on the tissue surface. The medium is then removed by gently tapping the insert on absorbent paper, and 50 μl of maintenance medium at 37° C. is added. The inserts are then incubated for 6 h at 37° C./5% CO2.
In summary, corneal tissues are recovered with forceps and placed in tubes for rapid freezing in liquid nitrogen. The RNA is then extracted by the QIAzol technique (Qiagen, Courtaboeuf, France) with an “RNeasy Mini Kit” according to the manufacturer's instructions. In summary, the tissues are placed in 1 ml of QIAzol and homogenized using the TissueLyser II (Qiagen, Courtaboeuf, France) with 2 steel beads. After centrifugation, the supernatant is collected and 0.2 ml of bromochloro propane (Sigma, France) is added, then the whole is vigorously mixed. The homogenate is centrifuged at 12,000 g for 15 min at 4° C. The upper phase (aqueous phase) is added to 600 μl of 70% ethanol and immediately mixed by pipetting. The mixture is transferred to an RNeasy spin column placed on a 2 ml collection tube and the RNA is collected according to the manufacturer's instructions (Qiagen, Courtaboeuf, France).
In summary, the transcription of total RNA is performed with 1 μg of total RNA in a final volume of 20 μl using “Random Primers” (Invitrogen, France) and “SuperScript III Reverse Transcriptase” (Invitrogen, France) according to the manufacturer's instructions. Quantitative RT-PCR uses a PCR reagent mix: SYBR Green Real-Time PCR Master Mix (ROCHE, France) with 0.4 μM of each nucleotide primer in a final volume of 25 μl. The reaction is performed in an LC480 System (ROCHE, France). The amplification program comprises a cycle at 95° C. for 1 min, followed by 40 cycles with denaturation at 95° C. for 15 s, a hybridization and amplification phase at 60° C. for 15 s, followed by a final elongation phase at 72° C. for 40 s.

eye = settings: cited from earlier work; for GHS Class: Table 6, list of solid chemicals studied; for eye irritation category as stated in text and figure legends: control chemicals and chemicals of FIG. 1 and FIG. 2; for UN GHS: Table 1, list of liquid products studied
[2] = liquid products, category from LII at 100% and 30%
[3] = Table 3, results obtained by the Draize test, liquid products

Molecule | EIT prediction [1, 2] | UN-GHS (eye; [3]) | also measured
1-Ethyl-3-methylimidazolium ethylsulfate | No Cat* | No Cat | 
Oc1cccc2c(O)cccc12 [1,5-Naphthalenediol] |  |  | UN-GHS (eye; Draize test classification): Cat 2A; GHS Class (eye): Cat 2A; eye irritation category as stated in text and figure legends (eye; listed as naphthalene dione): Category 2
C=CCCCCCCC=C [1,9-Decadiene] |  | No Cat | EIT prediction [1]: No Cat
OCCCCCCCCCl [1-Chloroctan-8-ol] | Cat 1 | Cat 1 | UN GHS (eye): Cat 1
O=C(O)Cc1cccc2ccccc12 [1-Naphthalene acetic acid] |  |  | UN-GHS (eye; Draize test classification): Cat 1; GHS Class (eye): Cat 1
CC(C)(C)CC(C)(C)c1cc(Cc2cc(C(C)(C)CC(C)(C)C)cc(-n3nc4ccccc4n3)c2O)c(O)c(-n2nc3ccccc3n2)c1 [2,2′-Methylene-bis-(6-(2H-benzotriazol-2-yl)-4-(1,1,3,3-tetramethylbutyl)phenol)] |  |  | GHS Class (eye): No cat; eye irritation category as stated in text and figure legends (eye): No category
CC(O)CC(C)O (stereo not shown) [2,4-Pentanediol] |  | No Cat | EIT prediction [1]: No Cat; eye irritation category as stated in text and figure legends (eye): No category
O=C(Cl)c1c(Cl)cccc1Cl [2,6-Dichlorobenzoyl chloride] |  | Cat 2A | EIT prediction ([1]; human, 10 min): Cat 2
C=C(C)C(=O)OCCOCC [2-Ethoxyethyl methacrylate] |  | No Cat | EIT prediction [1]: No Cat
CCCC(C)CO (stereo not shown) [2-Methyl-1-pentanol] |  | Cat 2B | EIT prediction ([1]; human, 10 min): Cat 2; eye irritation category as stated in text and figure legends (eye): Category 2
N#CCCCl [3-Chloropropionitrile] | Cat 2 | Cat 2B | 
CC(C)=O [Acetone 100%, Acetone] | Cat 2 | Cat 2A | eye irritation category as stated in text and figure legends (eye): category 2
C=CCO [Allyl alcohol] | Cat 2 | Cat 2A | 
CC(C)(C)CC(C)(C)c1ccc(OCCOCC[N+](C)(C)Cc2ccccc2)cc1 [Benzethonium chloride 10%, Benzethonium chloride] | Cat 1 |  | 
N=C(NCCCCCCNC(=N)NC(=N)Nc1ccc(Cl)cc1)NC(=N)Nc1ccc(Cl)cc1.O=C(O)[C@H](O)[C@@H](O)[C@H](O)[C@H](O)CO.O=C(O)[C@H](O)[C@@H](O)[C@H](O)[C@H](O)CO [Chlorhexidine gluconate (20%), Chlorhexidine gluconate] | Cat 2 | Cat 2A | 
[H]/N=C(\N/C(=N/[H])NCCCCCCNC(=N)NC(=N)Nc1ccc(Cl)cc1)Nc1ccc(Cl)cc1 [Chlorhexidine] |  | Cat 1 | EIT prediction ([1]; human, 10 min): Cat 1; UN GHS (eye): Cat 1
CCN(CC)C(=O)c1cccc(C)c1 [Diethyl toluamide] |  | Cat 2B | EIT prediction ([1]; human, 10 min): Cat 2
CCN(CC)CCC#N [Diethylaminopropionitrile] | Cat 1 | Cat 1 | UN GHS (eye): Cat 1
CCCSSCCC [Dipropyl disulfide] |  | No Cat | EIT prediction [1]: No Cat
CCOC(=O)C(C)C(C)=O (stereo not shown) [Ethyl-2-methylacetoacetate] |  | Cat 2B | EIT prediction ([1]; human, 10 min): Cat 2*
O=C1CCCO1 [Gamma-butyrolactone] | Cat 2 | Cat 2A | 
OCC(O)CO [Glycerol] |  |  | EIT prediction [1]: No Cat; eye irritation category as stated in text and figure legends (eye): No category

Molecule | EIT prediction [1, 2] | UN-GHS (eye; [3]) | also measured
O=C(O)CO [Glycolic acid (10%), Glycolic acid] |  | Cat 2B | 
CCCCCCCCCCCCCCCC[N+](C)(C)C.[Br-] [Hexadecyltrimethylammonium bromide 6%, Hexadecyltrimethylammonium bromide] |  | Cat 1 | EIT prediction ([1]; human, 10 min): Cat 1; UN GHS (eye): Cat 1
CC(O)C(=O)O (stereo not shown) [Lactic acid] |  | Cat 1 | EIT prediction ([1]; human, 10 min): Cat 1; UN GHS (eye): Cat 1; eye irritation category as stated in text and figure legends (eye): category 1
CCC(C)=O [Methyl ethyl ketone] | Cat 2 |  | eye irritation category as stated in text and figure legends (eye): category 2
COC(=O)CS [Methyl thioglycolate] |  | Cat 1 | EIT prediction ([1]; human, 10 min): Cat 1; UN GHS (eye): Cat 1; eye irritation category as stated in text and figure legends (eye): category 1
CCCCCCCC[Si](OC)(OC)OC [Octyltrimethoxysilane (SILAN 108), Octyltrimethoxysilane] |  | No Cat | EIT prediction [1]: No Cat*
CCCOCC(C)O (stereo not shown) [Propasol Solvent P] | Cat 1 | Cat 2A | 
[Na+].[OH-] [Sodium hydroxide 0.3%, Sodium hydroxide] | Cat 2 | Cat 2A | 
CCCCCCCCCCCCOS(=O)(=O)[O-].[Na+] [Sodium lauryl sulfate 3%, Sodium lauryl sulfate] | No Cat |  | 
C=CC(=O)OCCOCCOCCOCCOC(=O)C=C [Tetraethylene glycol diacrylate] |  | Cat 1 | EIT prediction ([1]; human, 10 min): Cat 2; UN GHS (eye): Cat 1
CO[Si](CCCNCCN)(OC)OC [[3-(2-Aminoethylamino)propyl]trimethoxysilane] |  | cat 1 | EIT prediction ([1]; human, 10 min): Cat 1; UN GHS (eye): Cat 1
CCCCCCC(C=O)=Cc1ccccc1 [alpha hexyl cinnamaldehyde] |  |  | eye irritation category as stated in text and figure legends (eye): category 2
CC(C)C=O [iso-Butanal] | Cat 2 | Cat 2B | 
CCCCCCBr [n-Hexyl bromide] | No Cat* | No Cat | 
CCCCCCCCCCCCOS(=O)(=O)[O-].[Na+] [sodium lauryl sulfate (15%), sodium lauryl sulfate] |  |  | eye irritation category as stated in text and figure legends (eye): category 1
Benzalkonium chloride [Benzalkonium chloride 5%] | Cat 1 | Cat 1 | UN GHS (eye): Cat 1
Triton X100 [Triton X100 1%] | No Cat | No Cat | 
Triton X100 [Triton X100 5%] | Cat 2 | Cat 2A | 
Triton X100 [Triton X100 10%] | Cat 1 | Cat 1 | UN GHS (eye): Cat 1
Triton X-100 [Triton X-100 10%] | Cat 1 | Cat 1 | UN GHS (eye): Cat 1
benzalkonium chloride [benzalkonium chloride (10%)] |  |  | eye irritation category as stated in text and figure legends (eye): category 1
